Data published in PubChem BioAssay AID1963838 (Molecular Pharmacology Branch, DTP, NCI, 2024).

System: 855422-203-R-J1-PDC complex spheroid viability
Assay: Anticancer human tumor 855422-203-R-J1-PDC patient-derived bladder carcinoma cell line growth inhibition [POLQ]
Details: for IC50: curve of first compound; for viability, T/C: stronger effect = lower value
Procedure, shortened: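 Patient-derived tumour cells were co-cultured with HUVEC and mesenchymal stem cells as multicellular spheroids at 37 °C. They were treated with POLQ inhibitors (novobiocin, ART-558, RP6685) alone or combined with other agents. Top concentrations were at or near clinical Cmax (otherwise 10 microM; SN-38 at 1 microM), decreasing in half-log steps.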

[1] = second compound 0.0316 µM, first compound 0.0316 µM
[2] = second compound 0.0316 µM, first compound 0.1 µM
[3] = second compound 0.0316 µM, first compound 0.316 µM
[4] = second compound 0.0316 µM, first compound 1 µM
[5] = second compound 0.0316 µM, first compound 3.16 µM
[6] = second compound 0.0316 µM, first compound 10 µM
[7] = second compound 0.1 µM, first compound 0.0316 µM
[8] = second compound 0.1 µM, first compound 0.1 µM
[9] = second compound 0.1 µM, first compound 0.316 µM
[10] = second compound 0.1 µM, first compound 1 µM
[11] = second compound 0.1 µM, first compound 3.16 µM
[12] = second compound 0.1 µM, first compound 10 µM
[13] = second compound 0.316 µM, first compound 0.0316 µM
[14] = second compound 0.316 µM, first compound 0.1 µM
[15] = second compound 0.316 µM, first compound 0.316 µM
[16] = second compound 0.316 µM, first compound 1 µM
[17] = second compound 0.316 µM, first compound 3.16 µM
[18] = second compound 0.316 µM, first compound 10 µM
[19] = second compound 1 µM, first compound 0.0316 µM
[20] = second compound 1 µM, first compound 0.1 µM
[21] = second compound 1 µM, first compound 0.316 µM
[22] = second compound 1 µM, first compound 1 µM
[23] = second compound 1 µM, first compound 3.16 µM
[24] = second compound 1 µM, first compound 10 µM
[25] = second compound 3.16 µM, first compound 0.0316 µM
[26] = second compound 3.16 µM, first compound 0.1 µM
[27] = second compound 3.16 µM, first compound 0.316 µM
[28] = second compound 3.16 µM, first compound 1 µM
[29] = second compound 3.16 µM, first compound 3.16 µM
[30] = second compound 3.16 µM, first compound 10 µM
[31] = second compound 10 µM, first compound 0.0316 µM
[32] = second compound 10 µM, first compound 0.1 µM
[33] = second compound 10 µM, first compound 0.316 µM
[34] = second compound 10 µM, first compound 1 µM
[35] = second compound 10 µM, first compound 3.16 µM
[36] = second compound 10 µM, first compound 10 µM
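Further: spheroids exposed to compounds for seven days before readout.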

SMILES: C#Cc1c(F)ccc2cc(O)cc(-c3ncc4c(N5CC6CCC(C5)N6)nc(OCC56CCCN5CC(F)C6)nc4c3F)c12 (stereo unspecified) + COC1C(OC(N)=O)C(O)C(Oc2ccc3c(O)c(NC(=O)c4ccc(O)c(CC=C(C)C)c4)c(=O)oc3c2C)OC1(C)C
- IC50 (second compound 0.0316 µM): > 10000 nM
- IC50 (second compound 0.1 µM): > 10000 nM
- IC50 (second compound 0.316 µM): > 10000 nM
- IC50 (second compound 1 µM): > 10000 nM
- IC50 (second compound 3.16 µM): > 10000 nM
- IC50 (second compound 10 µM): > 10000 nM
- viability, T/C [1]: 102%
- viability, T/C [2]: 105%
- viability, T/C [3]: 96.1%
- viability, T/C [4]: 109%
- viability, T/C [5]: 123%
- viability, T/C [6]: 120%
- viability, T/C [7]: 103%
- viability, T/C [8]: 114%
- viability, T/C [9]: 98.4%
- viability, T/C [10]: 108%
- viability, T/C [11]: 102%
- viability, T/C [12]: 108%
- viability, T/C [13]: 108%
- viability, T/C [14]: 103%
- viability, T/C [15]: 122%
- viability, T/C [16]: 115%
- viability, T/C [17]: 114%
- viability, T/C [18]: 117%
- viability, T/C [19]: 103%
- viability, T/C [20]: 97.3%
- viability, T/C [21]: 117%
- viability, T/C [22]: 115%
- viability, T/C [23]: 120%
- viability, T/C [24]: 111%
- viability, T/C [25]: 107%
- viability, T/C [26]: 109%
- viability, T/C [27]: 123%
- viability, T/C [28]: 111%
- viability, T/C [29]: 96.5%
- viability, T/C [30]: 99.2%
- viability, T/C [31]: 102%
- viability, T/C [32]: 104%
- viability, T/C [33]: 108%
- viability, T/C [34]: 117%
- viability, T/C [35]: 112%
- viability, T/C [36]: 115%

SMILES: CC1COCCN1c1cc(C2(O)CC3CCC(C2)O3)c2cnn(-c3ccn[nH]3)c2n1 (stereo unspecified) + COC1C(OC(N)=O)C(O)C(Oc2ccc3c(O)c(NC(=O)c4ccc(O)c(CC=C(C)C)c4)c(=O)oc3c2C)OC1(C)C
- IC50 (second compound 0.0316 µM): 113 nM
- IC50 (second compound 0.1 µM): 84.4 nM
- IC50 (second compound 0.316 µM): 106 nM
- IC50 (second compound 1 µM): 107 nM
- IC50 (second compound 3.16 µM): 96.7 nM
- IC50 (second compound 10 µM): 87.8 nM
- viability, T/C [1]: 94.3%
- viability, T/C [2]: 54.2%
- viability, T/C [3]: 14.5%
- viability, T/C [4]: 8.78%
- viability, T/C [5]: 6.63%
- viability, T/C [6]: 3.87%
- viability, T/C [7]: 84.8%
- viability, T/C [8]: 44.1%
- viability, T/C [9]: 13.4%
- viability, T/C [10]: 9.17%
- viability, T/C [11]: 6.55%
- viability, T/C [12]: 4.3%
- viability, T/C [13]: 99.6%
- viability, T/C [14]: 52%
- viability, T/C [15]: 18.9%
- viability, T/C [16]: 10.2%
- viability, T/C [17]: 8.4%
- viability, T/C [18]: 3.49%
- viability, T/C [19]: 109%
- viability, T/C [20]: 52.2%
- viability, T/C [21]: 12.7%
- viability, T/C [22]: 8.94%
- viability, T/C [23]: 7.59%
- viability, T/C [24]: 4.06%
- viability, T/C [25]: 112%
- viability, T/C [26]: 48.2%
- viability, T/C [27]: 14.7%
- viability, T/C [28]: 8.35%
- viability, T/C [29]: 7.58%
- viability, T/C [30]: 3.81%
- viability, T/C [31]: 112%
- viability, T/C [32]: 42%
- viability, T/C [33]: 15.8%
- viability, T/C [34]: 8.17%
- viability, T/C [35]: 7.6%
- viability, T/C [36]: 4.01%

SMILES: CCc1cc2c(N3CCc4c(cc(Cn5ccnc5)cc4-c4cn(C)nc4C(F)(F)F)C3=O)cc(C)nc2c(OC)n1 + COC1C(OC(N)=O)C(O)C(Oc2ccc3c(O)c(NC(=O)c4ccc(O)c(CC=C(C)C)c4)c(=O)oc3c2C)OC1(C)C
- IC50 (second compound 0.0316 µM): 2800 nM
- IC50 (second compound 0.1 µM): 1450 nM
- IC50 (second compound 0.316 µM): 1640 nM
- IC50 (second compound 1 µM): 1750 nM
- IC50 (second compound 3.16 µM): 2120 nM
- IC50 (second compound 10 µM): 1220 nM
- viability, T/C [1]: 89.1%
- viability, T/C [2]: 78.2%
- viability, T/C [3]: 75.6%
- viability, T/C [4]: 71.5%
- viability, T/C [5]: 45.7%
- viability, T/C [6]: 25.3%
- viability, T/C [7]: 105%
- viability, T/C [8]: 80%
- viability, T/C [9]: 65.4%
- viability, T/C [10]: 58.9%
- viability, T/C [11]: 43.9%
- viability, T/C [12]: 24.5%
- viability, T/C [13]: 106%
- viability, T/C [14]: 90.2%
- viability, T/C [15]: 67.8%
- viability, T/C [16]: 63%
- viability, T/C [17]: 39.6%
- viability, T/C [18]: 23.5%
- viability, T/C [19]: 114%
- viability, T/C [20]: 79.6%
- viability, T/C [21]: 76.3%
- viability, T/C [22]: 63.3%
- viability, T/C [23]: 41.1%
- viability, T/C [24]: 25.9%
- viability, T/C [25]: 91.2%
- viability, T/C [26]: 86%
- viability, T/C [27]: 75.4%
- viability, T/C [28]: 62%
- viability, T/C [29]: 43.7%
- viability, T/C [30]: 25.4%
- viability, T/C [31]: 83.2%
- viability, T/C [32]: 73.8%
- viability, T/C [33]: 62.7%
- viability, T/C [34]: 56.6%
- viability, T/C [35]: 35.8%
- viability, T/C [36]: 22.1%
